According to patent US20240279226A1, “ERGOLINE-DERIVED AGONISTS OF THE 5-HT2A RECEPTOR” (priority 2021, published 2024):

Key:
[1] = biological target: 5-HT2A receptor (Homo sapiens (Human), UniProt P28223); test: biochemical; assay type: binding; settings: radioligand [3H]-ketanserin, cell membrane, 27° C. 90 min
Procedure: Compound binding was calculated as a % inhibition of the binding of a radioactively labeled ligand specific for each receptor. Results with inhibition >50% were considered to represent significant effects. In each experiment, the respective reference compound was tested in parallel with the test compounds, and the data were compared with previous values determined at Eurofins.
Bovine Serum Albumin (BSA), calcium chloride (CaCl2)), and polyethylenimine, branched (PEI) were purchased from Sigma. Tris(hydroxymethl)aminomethane (Tris) was purchased from Alfa Aesar.
Microbeta^2 microplate counter, MicroBeta Filtermate-96, and UniFilter-96 GF/C were purchased from PerkinElmer. TopSeal was purchased from Biotss. Seven Compact pH meter was purchased from Mettler Toledo. Ultrapure water meter was purchased from Sichuan Ulupure. Benchtop Centrifuge was purchased from Hunan Xiangyi. Microplate shaker was purchased from Allsheng. 384-Well Polypropylene Microplate was purchased from Labcyte. 96 round well plate was purchased from Corning. 96 round deep well plate was purchased from Axygen. Echo was purchased from LABCYTE. • 1. Prepare the assay buffer following the table below:
• 2. […] Read the plate by using a Microbeta^2 microplate counter.
• 11. […] The IC50 is determined by fitting percentage of inhibition function of compound concentrations with Hill equation using XLfit.

[2] = biological target: 5-HT2C receptor (Homo sapiens (Human), UniProt P28335); test: biochemical; assay type: binding; settings: radioligand [3H]-Mesulergine, cell membrane, 27° C. 60 min
Sequence of 5-HT2C receptor (P28335 33-458 limits assumed): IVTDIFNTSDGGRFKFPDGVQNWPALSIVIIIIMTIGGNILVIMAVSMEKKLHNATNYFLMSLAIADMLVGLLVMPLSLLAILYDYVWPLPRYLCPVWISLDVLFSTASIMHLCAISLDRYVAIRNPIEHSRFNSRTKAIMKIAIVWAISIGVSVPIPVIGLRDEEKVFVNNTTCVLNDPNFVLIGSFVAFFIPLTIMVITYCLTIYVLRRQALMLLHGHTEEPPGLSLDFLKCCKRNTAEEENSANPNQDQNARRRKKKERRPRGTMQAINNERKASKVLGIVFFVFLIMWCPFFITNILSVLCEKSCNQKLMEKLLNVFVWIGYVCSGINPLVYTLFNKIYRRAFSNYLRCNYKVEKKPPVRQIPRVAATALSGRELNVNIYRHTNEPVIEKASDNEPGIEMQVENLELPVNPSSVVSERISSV

| Compound | IC50 [1] | IC50 [2] |
| --- | --- | --- |
| [2H]C([2H])([2H])N1C[C@H](NC(=O)N(CC)OC)C=C2c3cccc4[nH]cc(c34)C[C@H]21 [Example 6b, 1-ethyl-1-methoxy-3-((6aR,9R)-7-(methyl-d3)-4,6,6a,7,8,9-hexahydroindolo[4,3-fg]quinolin-9-yl) urea] | 6.5 nM | 312 nM |
| [2H]C([2H])([2H])N1C[C@@H](NC(=O)N(CC)OC)C=C2c3cccc4[nH]cc(c34)C[C@H]21 [Example 6a, 1-ethyl-1-methoxy-3-((6aR,9S)-7-(methyl-d3)-4,6,6a,7,8,9-hexahydroindolo[4,3-fg]quinolin-9-yl)urea] | 2.6 nM | 96 nM |
